Measured values as given in ChEMBL document CHEMBL1145498, “A systematic interaction map of validated kinase inhibitors with Ser/Thr kinases” (Proc Natl Acad Sci U S A, 2007).

How the values were obtained:
[1] = molecular target: 5'-AMP-activated protein kinase catalytic subunit alpha-2 (Homo sapiens) (UniProt P54646)
[2] = molecular target: Calcium/calmodulin-dependent protein kinase type II subunit alpha (Homo sapiens) (UniProt Q9UQM7)
[3] = molecular target: Calcium/calmodulin-dependent protein kinase type II subunit beta (Homo sapiens) (UniProt Q13554)
[4] = molecular target: Calcium/calmodulin-dependent protein kinase type II subunit delta (Homo sapiens) (UniProt Q13557)
[5] = molecular target: Calcium/calmodulin-dependent protein kinase type II subunit gamma (Homo sapiens) (UniProt Q13555)
[6] = molecular target: Cyclin-dependent kinase-like 1 (Homo sapiens) (UniProt Q00532)
[7] = molecular target: Serine/threonine-protein kinase Chk2 (Homo sapiens, UniProt O96017)
[8] = molecular target: Dual specificity protein kinase CLK1 (Homo sapiens) (UniProt P49759)
[9] = molecular target: Casein kinase I isoform gamma-2 (Homo sapiens) (UniProt P78368)
[10] = molecular target: Casein kinase I isoform gamma-3 (Homo sapiens) (UniProt Q9Y6M4)
[11] = molecular target: Death-associated protein kinase 3 (Homo sapiens) (UniProt O43293)
[12] = molecular target: Tyrosine-protein kinase JAK1 (Homo sapiens) (UniProt P23458)
[13] = molecular target: Dual specificity mitogen-activated protein kinase kinase 2 (Homo sapiens, UniProt P36507)
[14] = molecular target: T1, Dual specificity mitogen-activated protein kinase kinase 6 (Homo sapiens) (UniProt P52564)
T1 sequence (whole entry): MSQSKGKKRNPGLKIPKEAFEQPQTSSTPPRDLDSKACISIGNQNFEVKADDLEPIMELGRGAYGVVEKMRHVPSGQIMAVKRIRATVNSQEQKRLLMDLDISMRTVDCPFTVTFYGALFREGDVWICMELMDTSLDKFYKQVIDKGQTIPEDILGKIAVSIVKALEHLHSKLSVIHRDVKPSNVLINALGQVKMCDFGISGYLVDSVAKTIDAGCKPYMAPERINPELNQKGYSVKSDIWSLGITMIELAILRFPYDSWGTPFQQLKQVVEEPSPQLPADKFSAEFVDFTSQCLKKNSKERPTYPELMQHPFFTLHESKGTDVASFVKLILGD

[15] = molecular target: Mitogen-activated protein kinase 3 (Homo sapiens, UniProt P27361)
[16] = molecular target: Serine/threonine-protein kinase 26 (Homo sapiens) (UniProt Q9P289)
[17] = molecular target: Serine/threonine-protein kinase OSR1 (Homo sapiens) (UniProt O95747)
[18] = molecular target: Serine/threonine-protein kinase PAK 5 (Homo sapiens) (UniProt Q9P286)
[19] = molecular target: Cyclin-dependent kinase 16 (Homo sapiens) (UniProt Q00536)
[20] = molecular target: Serine/threonine-protein kinase pim-3 (Homo sapiens) (UniProt Q86V86)
[21] = molecular target: Serine/threonine-protein kinase PLK1 (Homo sapiens) (UniProt P53350)
[22] = molecular target: Serine/threonine-protein kinase RIO2 (Homo sapiens) (UniProt Q9BVS4)
[23] = molecular target: Ribosomal protein S6 kinase alpha-3 (Homo sapiens) (UniProt P51812)
[24] = molecular target: STE20-like serine/threonine-protein kinase (Homo sapiens) (UniProt Q9H2G2)
[25] = molecular target: Serine/threonine-protein kinase 38 (Homo sapiens) (UniProt Q15208)
[26] = molecular target: Cyclin-dependent kinase 6 (Homo sapiens) (UniProt Q00534)
[27] = molecular target: Cyclin-dependent kinase 2 (Homo sapiens, UniProt P24941)

Sequence of Dual specificity protein kinase CLK1 (Homo sapiens) (P49759 whole entry, looked up, canonical isoform): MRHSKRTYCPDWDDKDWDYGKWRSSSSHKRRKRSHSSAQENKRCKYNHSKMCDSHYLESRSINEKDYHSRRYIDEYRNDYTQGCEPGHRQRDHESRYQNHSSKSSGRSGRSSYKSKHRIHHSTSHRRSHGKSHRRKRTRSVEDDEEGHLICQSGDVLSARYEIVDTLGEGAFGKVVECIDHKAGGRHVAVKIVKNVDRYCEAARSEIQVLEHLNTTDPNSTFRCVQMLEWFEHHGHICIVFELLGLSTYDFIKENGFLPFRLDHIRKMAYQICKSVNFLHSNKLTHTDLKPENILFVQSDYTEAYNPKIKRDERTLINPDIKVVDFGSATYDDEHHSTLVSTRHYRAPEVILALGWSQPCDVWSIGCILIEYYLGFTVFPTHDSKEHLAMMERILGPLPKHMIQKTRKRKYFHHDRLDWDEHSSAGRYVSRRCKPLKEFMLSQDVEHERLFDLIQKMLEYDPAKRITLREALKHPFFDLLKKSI
Sequence of Calcium/calmodulin-dependent protein kinase type II subunit gamma (Homo sapiens) (Q13555 whole entry): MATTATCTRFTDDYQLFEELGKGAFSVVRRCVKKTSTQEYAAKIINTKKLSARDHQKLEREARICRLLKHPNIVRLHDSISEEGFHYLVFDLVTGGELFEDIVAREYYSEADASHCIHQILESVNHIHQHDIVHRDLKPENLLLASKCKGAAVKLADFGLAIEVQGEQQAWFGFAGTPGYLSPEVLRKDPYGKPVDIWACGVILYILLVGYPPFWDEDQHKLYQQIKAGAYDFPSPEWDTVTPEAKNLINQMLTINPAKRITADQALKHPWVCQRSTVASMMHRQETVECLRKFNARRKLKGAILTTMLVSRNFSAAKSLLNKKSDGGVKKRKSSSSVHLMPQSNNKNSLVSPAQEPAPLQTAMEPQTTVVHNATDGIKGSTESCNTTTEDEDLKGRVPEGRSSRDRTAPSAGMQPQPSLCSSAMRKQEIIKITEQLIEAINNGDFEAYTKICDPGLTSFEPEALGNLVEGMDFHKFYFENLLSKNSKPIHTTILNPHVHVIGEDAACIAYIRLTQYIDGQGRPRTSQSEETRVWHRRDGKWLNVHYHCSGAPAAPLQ
Sequence of Serine/threonine-protein kinase OSR1 (Homo sapiens) (O95747 2-527 limits assumed): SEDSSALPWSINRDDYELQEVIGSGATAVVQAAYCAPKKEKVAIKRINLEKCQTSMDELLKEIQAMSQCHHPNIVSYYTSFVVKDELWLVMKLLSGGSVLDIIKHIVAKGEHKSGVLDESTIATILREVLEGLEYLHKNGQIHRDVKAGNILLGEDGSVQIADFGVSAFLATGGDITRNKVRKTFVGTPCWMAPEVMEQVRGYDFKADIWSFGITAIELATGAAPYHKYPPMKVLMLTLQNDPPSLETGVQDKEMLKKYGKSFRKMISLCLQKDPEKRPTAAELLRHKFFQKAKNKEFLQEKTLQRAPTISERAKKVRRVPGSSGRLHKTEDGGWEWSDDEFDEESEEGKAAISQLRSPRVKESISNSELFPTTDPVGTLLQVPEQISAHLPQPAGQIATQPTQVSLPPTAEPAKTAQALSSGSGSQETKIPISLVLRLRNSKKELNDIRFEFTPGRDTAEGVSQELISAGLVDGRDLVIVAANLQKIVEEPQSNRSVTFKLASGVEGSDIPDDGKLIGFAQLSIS
Sequence of Serine/threonine-protein kinase Chk2 (O96017 whole entry): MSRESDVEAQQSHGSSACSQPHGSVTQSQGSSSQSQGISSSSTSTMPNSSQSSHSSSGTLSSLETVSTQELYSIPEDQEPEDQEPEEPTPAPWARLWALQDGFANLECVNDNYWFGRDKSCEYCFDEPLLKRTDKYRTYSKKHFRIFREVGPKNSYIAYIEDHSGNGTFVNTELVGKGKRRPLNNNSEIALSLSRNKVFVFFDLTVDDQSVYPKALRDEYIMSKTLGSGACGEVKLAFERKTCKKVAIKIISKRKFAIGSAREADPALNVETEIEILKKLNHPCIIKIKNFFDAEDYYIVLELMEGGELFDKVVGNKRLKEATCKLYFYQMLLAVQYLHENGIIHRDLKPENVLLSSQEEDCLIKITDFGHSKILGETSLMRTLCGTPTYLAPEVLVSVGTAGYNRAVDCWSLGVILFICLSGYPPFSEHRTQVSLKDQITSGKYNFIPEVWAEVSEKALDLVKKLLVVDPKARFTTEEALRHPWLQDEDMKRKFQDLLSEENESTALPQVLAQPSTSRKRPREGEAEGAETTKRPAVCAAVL
Sequence of STE20-like serine/threonine-protein kinase (Homo sapiens) (Q9H2G2 whole entry, looked up): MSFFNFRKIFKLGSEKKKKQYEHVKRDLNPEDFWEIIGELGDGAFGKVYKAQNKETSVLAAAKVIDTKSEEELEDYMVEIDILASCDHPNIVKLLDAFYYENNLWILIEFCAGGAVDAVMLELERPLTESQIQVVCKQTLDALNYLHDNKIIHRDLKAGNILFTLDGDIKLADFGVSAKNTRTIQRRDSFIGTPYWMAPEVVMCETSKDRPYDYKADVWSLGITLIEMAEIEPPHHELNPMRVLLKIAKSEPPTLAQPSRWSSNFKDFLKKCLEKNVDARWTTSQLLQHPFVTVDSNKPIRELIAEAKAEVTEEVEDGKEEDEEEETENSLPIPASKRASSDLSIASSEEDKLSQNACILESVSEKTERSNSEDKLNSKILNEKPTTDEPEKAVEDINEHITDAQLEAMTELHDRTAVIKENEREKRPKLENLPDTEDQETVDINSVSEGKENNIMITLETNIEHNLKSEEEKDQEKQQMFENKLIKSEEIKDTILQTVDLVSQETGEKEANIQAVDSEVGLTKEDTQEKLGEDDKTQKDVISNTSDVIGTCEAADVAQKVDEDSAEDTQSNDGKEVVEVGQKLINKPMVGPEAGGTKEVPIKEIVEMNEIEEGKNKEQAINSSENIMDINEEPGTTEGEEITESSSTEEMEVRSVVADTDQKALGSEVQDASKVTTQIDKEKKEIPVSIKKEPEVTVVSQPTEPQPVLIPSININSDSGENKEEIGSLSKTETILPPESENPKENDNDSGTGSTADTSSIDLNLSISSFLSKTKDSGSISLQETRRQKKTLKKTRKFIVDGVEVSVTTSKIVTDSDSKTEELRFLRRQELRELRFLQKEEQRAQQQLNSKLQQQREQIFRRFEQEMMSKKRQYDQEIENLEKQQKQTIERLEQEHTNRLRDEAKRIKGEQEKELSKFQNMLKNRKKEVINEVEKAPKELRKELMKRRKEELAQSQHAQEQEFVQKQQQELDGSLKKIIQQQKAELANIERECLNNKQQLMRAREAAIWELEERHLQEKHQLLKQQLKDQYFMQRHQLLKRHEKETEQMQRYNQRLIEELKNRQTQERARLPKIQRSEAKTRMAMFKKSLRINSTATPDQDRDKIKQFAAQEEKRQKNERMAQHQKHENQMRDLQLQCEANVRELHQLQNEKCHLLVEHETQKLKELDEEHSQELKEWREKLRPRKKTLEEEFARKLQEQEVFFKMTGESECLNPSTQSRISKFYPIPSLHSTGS
Sequence of Serine/threonine-protein kinase 38 (Homo sapiens) (Q15208 2-465 limits assumed): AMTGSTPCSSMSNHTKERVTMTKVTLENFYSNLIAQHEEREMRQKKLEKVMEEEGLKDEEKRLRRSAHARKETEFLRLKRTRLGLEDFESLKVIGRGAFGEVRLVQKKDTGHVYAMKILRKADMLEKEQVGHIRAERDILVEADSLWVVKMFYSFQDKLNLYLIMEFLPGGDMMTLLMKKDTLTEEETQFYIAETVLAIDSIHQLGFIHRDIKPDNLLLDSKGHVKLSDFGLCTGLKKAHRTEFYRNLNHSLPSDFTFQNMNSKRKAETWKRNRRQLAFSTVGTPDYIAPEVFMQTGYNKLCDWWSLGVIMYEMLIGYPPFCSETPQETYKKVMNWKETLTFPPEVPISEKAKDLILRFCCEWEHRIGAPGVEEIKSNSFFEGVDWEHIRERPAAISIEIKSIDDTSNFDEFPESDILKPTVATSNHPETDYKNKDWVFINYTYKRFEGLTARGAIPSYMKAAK
Sequence of Cyclin-dependent kinase 16 (Homo sapiens) (Q00536 whole entry): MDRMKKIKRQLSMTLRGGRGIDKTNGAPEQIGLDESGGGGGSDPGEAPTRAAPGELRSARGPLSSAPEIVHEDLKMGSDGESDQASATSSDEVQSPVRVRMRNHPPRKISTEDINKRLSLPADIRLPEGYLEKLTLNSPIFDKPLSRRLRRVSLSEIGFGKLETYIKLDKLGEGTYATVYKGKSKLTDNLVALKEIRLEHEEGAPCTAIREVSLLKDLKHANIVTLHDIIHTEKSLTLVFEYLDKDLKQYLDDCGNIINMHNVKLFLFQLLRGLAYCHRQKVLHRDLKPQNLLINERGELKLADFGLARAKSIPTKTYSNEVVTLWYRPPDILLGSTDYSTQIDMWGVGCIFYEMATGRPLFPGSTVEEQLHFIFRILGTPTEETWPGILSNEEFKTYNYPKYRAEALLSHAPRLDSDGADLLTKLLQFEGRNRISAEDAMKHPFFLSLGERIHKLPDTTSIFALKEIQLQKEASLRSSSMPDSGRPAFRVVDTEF
Sequence of Calcium/calmodulin-dependent protein kinase type II subunit beta (Homo sapiens) (Q13554 whole entry): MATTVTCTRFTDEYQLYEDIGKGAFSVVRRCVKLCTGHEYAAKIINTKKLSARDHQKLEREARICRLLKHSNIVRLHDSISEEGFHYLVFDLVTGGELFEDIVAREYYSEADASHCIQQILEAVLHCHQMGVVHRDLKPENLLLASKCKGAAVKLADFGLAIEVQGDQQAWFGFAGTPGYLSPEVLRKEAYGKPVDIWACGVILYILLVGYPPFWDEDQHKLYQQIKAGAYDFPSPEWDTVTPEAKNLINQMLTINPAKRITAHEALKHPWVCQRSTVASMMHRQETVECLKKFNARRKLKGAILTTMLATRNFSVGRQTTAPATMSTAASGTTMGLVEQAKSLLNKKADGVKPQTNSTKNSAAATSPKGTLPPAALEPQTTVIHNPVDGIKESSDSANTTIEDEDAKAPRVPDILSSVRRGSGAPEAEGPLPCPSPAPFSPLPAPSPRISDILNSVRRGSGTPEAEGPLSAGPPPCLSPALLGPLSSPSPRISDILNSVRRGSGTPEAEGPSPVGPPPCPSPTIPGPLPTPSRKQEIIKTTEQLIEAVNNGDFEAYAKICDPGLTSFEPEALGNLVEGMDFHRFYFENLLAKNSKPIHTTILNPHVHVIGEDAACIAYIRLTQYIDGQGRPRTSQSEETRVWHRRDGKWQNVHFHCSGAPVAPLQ

| Compound | ΔTm [1] [°C] | ΔTm [2] [°C] | ΔTm [4] [°C] | ΔTm [5] [°C] | ΔTm [6] [°C] | ΔTm [7] [°C] | ΔTm [8] [°C] | ΔTm [9] [°C] | ΔTm [10] [°C] | ΔTm [11] [°C] | ΔTm [12] [°C] | ΔTm [13] [°C] | ΔTm [14] [°C] | ΔTm [15] [°C] | ΔTm [16] [°C] | ΔTm [17] [°C] | ΔTm [18] [°C] | ΔTm [19] [°C] | ΔTm [20] [°C] | ΔTm [21] [°C] | other results |
| --- | --- | --- | --- | --- | --- | --- | --- | --- | --- | --- | --- | --- | --- | --- | --- | --- | --- | --- | --- | --- | --- |
| CC(C)[C@H](CO)Nc1nc(Nc2cc(N)cc(Cl)c2)c2ncn(C(C)C)c2n1 [AMINOPURVALANOL] | 0.3 | 0.5 | 0.3 | 1.3 | 2.7 | 7.5 | 5.5 | 1.8 | 1.1 | 3.4 | 0.1 | 0.1 | 1.3 | 0.2 | 4.3 | 2.6 | 0.3 | 8.1 | 6.7 | 1 | ΔTm [3]: 0.5 °C; ΔTm [22]: 4.5 °C; ΔTm [23]: 3.4 °C; ΔTm [24]: 3.5 °C; ΔTm [25]: 0.6 °C |
| Cc1nc(N)sc1-c1ccnc(Nc2cccc([N+](=O)[O-])c2)n1 | 3 | 1.4 | -0.4 | 1 | 3.5 | 9.7 | 7 | 5.1 | 1.3 | 8.7 | 4.8 | 2.7 | 1.2 | 2.7 | 0.4 | 1.2 | 7.1 | 3.9 | 1.8 | 4.6 | ΔTm [26]: 4.3 °C; ΔTm [22]: 3.6 °C; ΔTm [23]: 10.7 °C; ΔTm [24]: 10 °C; ΔTm [25]: 0.6 °C |
| O=C(Nc1cccc(Nc2nccc(Nc3cccc(C(F)(F)F)c3)n2)c1)C1CC1 [ANILINOPYRIMIDINE1] | 1.5 | 0.3 | 0.6 | 0.2 | 1.6 | 3.8 | 1.9 | 6.5 | 2.2 | 6.5 | 2.6 | 0.8 | 0.2 | 0.9 | 1.5 | 1.2 | 2.6 | 3.2 | -0.7 | 3.3 | ΔTm [3]: 1 °C; ΔTm [27]: 0 °C; ΔTm [26]: 0.8 °C; ΔTm [22]: 3.7 °C; ΔTm [23]: 5.7 °C; ΔTm [24]: 4.1 °C; ΔTm [25]: 0.4 °C |
| COc1ccc(Cl)cc1NC(=O)Nc1cc(C)nc2ccccc12 | -0.4 | -0.5 | 0.9 | -0.5 | 1.6 | 2.4 | 0.5 | -0.1 | 0.9 | 2.3 | 0.5 | 0.2 | -0.3 | 2.5 | 1.1 | 0.6 | 2.6 | 0.5 | 0.8 | 0.9 | ΔTm [3]: 0.3 °C; ΔTm [27]: -0.6 °C; ΔTm [26]: 0.4 °C; ΔTm [22]: 0.6 °C; ΔTm [23]: 0.4 °C; ΔTm [24]: 1.4 °C; ΔTm [25]: 0.1 °C |
| CN(c1cccnc1)c1cc2c(Nc3ccc(F)c(Cl)c3)c(C#N)cnc2cn1 | 4.8 | 3.4 | 2.7 | 1.9 | 5.4 | 5 | 4.9 | 0.4 | 3.7 | 0.7 | 0.4 | 2.1 | 0.4 | -1.9 | 1.3 | 0.3 | 1 | 0.1 | -0.2 | 0.7 | ΔTm [3]: 1.2 °C; ΔTm [27]: -0.5 °C; ΔTm [26]: -0.6 °C; ΔTm [22]: 6.1 °C; ΔTm [23]: 1.7 °C; ΔTm [24]: 4.2 °C; ΔTm [25]: 0.3 °C |
| CC(C)c1nn(-c2c(Cl)cccc2Cl)c2nc(Cc3ccc(OCCO)cc3)[nH]c(=O)c12 | 1 | 0.4 | 0.6 | 0.7 | 0.2 | 3.6 | 3.6 | -0.3 | 1.3 | 6.2 | 0.2 | 0.4 | 0.1 | 3.4 | -0.3 | 2.9 | 6.2 | -0.6 | -0.4 | 1.4 | ΔTm [3]: 0.9 °C; ΔTm [27]: 10.6 °C; ΔTm [26]: 0.5 °C; ΔTm [22]: 0.1 °C; ΔTm [23]: 3.5 °C; ΔTm [24]: -0.5 °C; ΔTm [25]: 0.3 °C |
| O=C(Nc1cccc(Nc2cc(Nc3cccc(C(F)(F)F)c3)ncn2)c1)C1CC1 | -3.7 | 1.8 | -2 | -2 | 1.5 | 2.4 | 1.9 | 2.3 | 0.2 | 2.1 | 1.7 | 1 | 2.1 | 1.5 | 1.7 | 0.9 | 1 | 3.9 | 0.1 | 0 | ΔTm [3]: 2.9 °C; ΔTm [27]: -1.5 °C; ΔTm [26]: 0.1 °C; ΔTm [22]: 3.4 °C; ΔTm [23]: 2.6 °C; ΔTm [24]: 3.2 °C; ΔTm [25]: 1.5 °C |
| CN1CCc2[nH]c(=S)c(C#N)c(-c3cccs3)c2C1 | 0.4 | 0.8 | -0.8 | 1 | 11.1 | 5.3 | 2.4 | 5.2 | 0.2 | 0.3 | -0.1 | -0.2 | -0.2 | 0.6 | 1 | 0.8 | 0.8 | 4.1 | 4.2 | 2.4 | ΔTm [3]: -0.2 °C; ΔTm [27]: 0 °C; ΔTm [26]: 0.1 °C; ΔTm [22]: 0.3 °C; ΔTm [23]: 0.9 °C; ΔTm [24]: 5.9 °C; ΔTm [25]: 0.5 °C |
| Cc1ccc(NC2=CC(=O)c3sc(C)nc3C2=O)cc1 | 0 | -0.7 | 0.1 | -2 | -1.3 | -1.8 | -0.8 | 0 | -4.3 | -0.2 | -0.9 | -2 | -0.2 | -1.5 | -0.5 | -0.2 | 0.4 | -0.9 | -0.4 | -0.2 | ΔTm [3]: -0.6 °C; ΔTm [27]: 0.2 °C; ΔTm [26]: -1.7 °C; ΔTm [22]: 0.6 °C; ΔTm [23]: -0.9 °C; ΔTm [24]: -0.6 °C; ΔTm [25]: -1 °C |
